Results: article PMC5947850 (ACS infectious diseases, 2017)
Several values for one entry are separate records, joined by “and”; a condition that tells them apart may be missing. Equal entries are not always repeated. Where two headings read alike, the source gives them in different places. Marks after values point to notes of the source that are not given here.

Legend:
[1] = test system: P. falciparum Tm90-C2B (Chloroquine and Atovaquone resistant); test: 72 h SYBR Green I assay, P. falciparum Tm90-C2B; format: cell-based; conditions: Plasmodium falciparum, TM90, 72 h, read-out: In vitro activity vs. P. falciparum IC50, C2B
[2] = test system: blood-stage Plasmodium yoelii; test: Modified 4-day suppression test in mice; format: in vivo; conditions: 4-day Peters Test
[3] = test system: P. falciparum D6 (drug sensitive); test: 72 h SYBR Green I assay, P. falciparum D6; format: cell-based; conditions: Plasmodium falciparum, D6, 72 h, read-out: In vitro activity vs. P. falciparum IC50, D6
P. yoelii = test: Single dose cure of patent infection in mice; format: in vivo; conditions: dose required to clear patent infection without recrudescence for 30 days post-infection, PEG-400
[4] = test system: P. falciparum Dd2 (chloroquine resistant); test: 72 h SYBR Green I assay, P. falciparum Dd2; format: cell-based; conditions: Plasmodium falciparum, DD2, 72 h, read-out: In vitro activity vs. P. falciparum IC50, Dd2
[5] = test system: luciferase-transfected P. berghei sporozoites; conditions: dosed 1 hour prior to sporozoite inoculation; cited from earlier work
HepG2 cells = test: Mitochondrial toxicity, CellTiter-Glo ATP in galactose medium; format: cell-based, human; conditions: 72 hour incubation
[6] = molecular target: T1, P. falciparum cytochrome bc1 (Plasmodium falciparum, UniProt Q02768); conditions: read-out: P. falciparum cytochrome bc1 EC50, cited from earlier work
T1 sequence (Q02768 1-376): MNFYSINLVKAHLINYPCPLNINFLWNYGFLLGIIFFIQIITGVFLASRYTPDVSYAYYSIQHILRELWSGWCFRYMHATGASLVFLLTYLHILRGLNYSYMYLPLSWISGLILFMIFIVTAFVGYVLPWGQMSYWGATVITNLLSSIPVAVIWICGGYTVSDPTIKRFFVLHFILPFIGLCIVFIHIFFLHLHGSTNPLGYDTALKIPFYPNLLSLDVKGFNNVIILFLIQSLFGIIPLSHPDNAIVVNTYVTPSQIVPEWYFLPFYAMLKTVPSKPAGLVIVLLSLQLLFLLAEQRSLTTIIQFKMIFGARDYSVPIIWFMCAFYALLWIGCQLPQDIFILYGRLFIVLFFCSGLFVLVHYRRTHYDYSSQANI

[7] = test system: luciferase-transfected P. berghei sporozoites; format: in vivo, C57BL/6 albino mice; conditions: 24 hours prior to sporozoite inoculation
Human cytochrome bc1 [8] = molecular target: T2, Human cytochrome bc1 (Homo sapiens, UniProt P00156); conditions: read-out: Human cytochrome bc1 EC50; ref Nilsen, et al. 14; cited from earlier work
Human cytochrome bc1 [9] = molecular target: T2, Human cytochrome bc1; test: Human cytochrome bc1 inhibition; format: biochemical; conditions: read-out: Human cytochrome bc1 EC50
in vitro = in vitro ADME; conditions: human, plasma

For `CCN(CC)CCCC(C)Nc1ccnc2cc(Cl)ccc12` (stereo not drawn) [CQ, chloroquine], the IC50 [1] was 98 nM, the “In vivo efficacy (oral) P. yoelii NRD (non-recrudescence dose)” value [2] was over 64 mg/kg/day and the IC50 [3] was 10 nM. For the same compound, the “In vivo efficacy (oral) P. yoelii Single Dose Cure” value (P. yoelii) was over 64 mg/kg/day and the IC50 [4] was 140 nM.
For `COc1cc2[nH]c(C)c(-c3ccc(Oc4ccc(OC(F)(F)F)cc4)cc3)c(=O)c2cc1Cl` [ELQ-300], the “Fully protective dose against liver stage infection” value [5] is listed as at most 0.03 mg/kg, the “Highest concentration without inhibition or alteration of ATP production” value (HepG2 cells) is listed as at least 25 µM and the EC50 ([6]; ref Nilsen, et al. 14) is listed as 0.56 nM. The “Mice with positive IVIS signal at 24 hours” value ([7]; 0.1 mg/kg oral) was 2/5, the “Mice with positive IVIS signal at 48 hours” value ([7]; 0.1 mg/kg oral) was 5/5 and the “Mice with no parasitemia” value ([7]; 1 mg/kg oral) was 4/5. For the same compound, the “Mice with no parasitemia” value ([7]; 3 mg/kg oral) was 5/5, the “Parasite burden in the liver (IVIS)” value ([7]; 3 and 1 mg/kg oral) was “no detectable parasite burden in the liver” and the EC50 (Human cytochrome bc1 [8]) was over 10000 nM. The “In vivo efficacy (oral) P. yoelii NRD (non-recrudescence dose)” value [2] was 1 mg/kg/day and 1.0 mg/kg/day and the “In vivo efficacy (oral) P. yoelii Single Dose Cure” value (P. yoelii) was >20 ^e mg/kg/day.
For `COc1cc2nc(C)c(-c3ccc(Oc4ccc(OC(F)(F)F)cc4)cc3)c(OCOC(=O)OC(C)C)c2cc1Cl` [ELQ-330], the “In vivo efficacy (oral) P. yoelii Single Dose Cure” value (P. yoelii) was 5.0 mg/kg/day.
For `CCOC(=O)Oc1c(-c2ccc(Oc3ccc(OC(F)(F)F)cc3)cc2)c(C)nc2cc(OC)c(Cl)cc12` [ELQ-337], the EC50 ([6]; ref Miley, et al. 26) is listed as 10000 nM and the EC50 (Human cytochrome bc1 [9]) is listed as over 10000 nM.
With `CCOC(=O)OC(C)Oc1c(-c2ccc(Oc3ccc(OC(F)(F)F)cc3)cc2)c(C)nc2cc(OC)c(Cl)cc12` (stereo not drawn) [ELQ-387] the “In vivo efficacy (oral) P. yoelii Single Dose Cure” value (P. yoelii) was 5.0 mg/kg/day.
Work on `CC(C)[N+](C)(CCOC(=O)C1c2ccccc2Oc2ccccc21)C(C)C` [Propantheline bromide] yielded a half-life at 1 μM (in vitro) of 37.5 min.
